# US20250346582A1, “SPLEEN TYROSINE KINASE INHIBITORS AND METHODS OF USE THEREOF” (THE BOARD OF TRUSTEES OF THE UNIVERSITY OF ILLINOIS, priority 2022, published 2025)
# Columns and labels:
# Assay type in all cases: cell-based
# Raji B cells = assay: Cell viability assay (CellTiter-Glo), Raji cells; details: 0.5-5 μM
# Procedure: All cell viability assays were conducted in a white, flat-bottom, 96-well tissue culture plate (Corning). The Raji cells were seeded at a density of 3.0×10^5 cells/well 24 h prior to the incubation with the inhibitor. Varying concentrations of WC36 (or DMSO) was then added to each well and the plates were incubated at 37° C. and at 5% CO2 for 72 h. Cell viability was quantified with the CellTiter-Glo reagent. Growth media were removed by aspiration and replaced with 100 μl fresh media and 100 μl CellTiter-Glo reagent. The plates were then gently shaken for 2 min and incubated at 25 C.° for additional 8 min. The luminescence was measured using Synergy™ Neo spectrofluorometer at 25 C.°. The luminescence value at each WC36 concentration was normalized against that without WC36. DMSO with the same volume as the WC36 solution was used as negative controls.
# patient AML cells = assay: Colony growth assay of patient-derived AML cells; details: primary AML cells from 4 patients
# Procedure: (§1) Primary samples were obtained from an existing HEMBANK at UIC under an IRB approved research protocol (protocol #2021-0723). Cells were processed and treated with inhibitors as reported previously^75. For primary AML samples, mononuclear cells isolated by Ficoll density centrifugation were utilized. mononuclear cells were treated in culture at a density of 0.5×10^6/ml in StemSpan with CD34 expansion supplement (Stemcell Technologies) for 24 h and then harvested for immunoblotting assays. In parallel 2×10^4 cells were plated in triplicate for each treatment condition in Methoccult H4434 (Stem Cell Technologies) in the presence of drug. At days 12-14, colonies were manually enumerated under light microscopy and normalized to DMSO control for each individual sample due to interpatient variability in colony forming activity. Normalized colony forming units for pooled treated and untreated samples (n=4) were compared using unpaired 2-tailed t test. p<0.05 was considered statistically significant.
# Syk activation = assay: Immunoblotting of patient-derived primary AML cells; details: primary AML cells from 4 patients refractory or relapsed
# Procedure: as §1
# Syk = molecular target: T1, Syk (Homo sapiens, UniProt P43405); assay: Streptavidin pull down assay with WC36B in MV4-11 cells; details: WC36B-streptavidin pull down
# T1 construct: host or cells: MV4-11 AML cells (naive and entospletinib-resistant)
# Procedure: Streptavidin-coated beads (Dynabeads™ M280 streptavidin beads; ThermoFisher) were washed twice with 1 ml of PBST (PBS+0.1% Tween 20) and resuspended in 100 μl of PBST. WC36B (or biotin) (10 mM) was added to 100 μl of the bead suspension and the mixture was incubated at room temperature for 15 min with gentle shaking. The mixture was then vortexed for 5 s and the tube was placed on a magnet for 1 min. After discarding the supernatant, the beads were resuspended in the same volume of the washing buffer. Washing is repeated three times to remove excess WC36B. WC36B-coated beads were then incubated with the cell lysate (MV-4-11) for 30 min at room temperature with gentle shaking. Protein-coated beads were separated with a magnet for 2-3 min and washed 4-5 times with PBS containing 0.1% BSA. The protein was then removed from the beads by boiling the beads in the SDS-polyacrylamide gel electrophoresis (PAGE) application buffer. Samples were concentrated for the mass spectrometry analysis and the western blot assay.
compound,measurement,setting,value
"[N-]=[N+]=C(C(=O)OC1CCCCC1)C(Nc1ncccn1)c1c[nH]c2ccccc12 (racemic) [WC36, Cyclohexyl 2-diazo-3-(1H-indol-3-yl)-3-(pyrimidin-2-ylamino)propanoate]",effect on cell viability,Raji B cells,minimal effect on cell viability
same,suppression of colony forming activity,patient AML cells,statistically significant suppression of colony forming activity
same,inhibition of Syk activation,Syk activation,significant inhibition of Syk activation
same,competition with WC36B for Syk binding,Syk,able to compete with WC36B for Syk binding
